Tests used:
Experiment in all cases: Post-emergence glasshouse spray test, visual percentage phytotoxicity after 13 days
Format in all cases: in vivo
[1] = test system: Digitaria sanguinalis (DIGSA); settings: for DIGSA percentage phytotoxicity: B1; for Observed phytotoxicity DIGSA: B2.2.3
Experimental: (§1) Seeds of Setaria faberi (SETFA), Echinochloa crus-galli (ECHCG), Digitaria sanguinalis (DIGSA), Lolium perenne (LOLPE), Alopecurus myosuroides (ALOMY), Chenopodium album (CHEAL), Ipomoea hederacea (IPOHE), Stellaria media (STEME), Abutilon threophrasti (ABUTH), Amaranthus retroflexus (AMARE) were sown in standard sterilised soil in pots. After cultivation for 8 days under controlled conditions in a glasshouse (at 24/19° C., day/night; 16 hours light; no humidity control), the plants were sprayed at 500 l/Ha with an aqueous spray solution derived from the formulation of the technical active ingredients in a small amount of acetone and a solvent and emulsifier mixture referred to as IF50 (11.12% Emulsogen EL360™+44.44% N-methylpyrrolidone+44.44% Dowanol DPM glycol ether), to create a 50 g/l solution which was then diluted using 0.2% Genapol XO80 (CAS Number: 9043-30-5) as diluent to give the desired final dose of test compound.
(§2) Where active ingredients were applied as mixtures, aqueous spray solutions were prepared as above, containing both active ingredients.
(§3) The test plants were then grown under controlled conditions in a glasshouse (at 24/18° C., day/night; 15 hours light; 50% humidity) and watered twice daily. After 13 days, the test was evaluated visually for percentage phytotoxicity to the plants (where 100=total damage to plant; 0=no damage to plant; and NC=not captured) when compared to control untreated plants. Two to four replicates were applied for each treatment in a randomised block test design.
(§4) 22., E=X+Y−(X*Y/100), where
(§5) X=average percent phytotoxicity of herbicide A when applied at a certain rate Y=average percent phytotoxicity using herbicide B when applied at a certain rate E=the expected effect of the mixture of herbicides A and B as calculated from the Colby formula.

[2] = test system: Alopecurus myosuroides (ALOMY); settings: for ALOMY percentage phytotoxicity: B1; for Observed phytotoxicity ALOMY: B2.2.5
Experimental: as §1, §2, §3, §4, §5

Setaria faberi (SETFA) = settings: for SETFA percentage phytotoxicity: B1; for Observed phytotoxicity SETFA: B2.2.1
Experimental: as §1, §2, §3, §4, §5

[3] = test system: Ipomoea hederacea (IPOHE); settings: B1
Experimental: as §1, §2, §3, §4, §5

[4] = test system: Amaranthus retroflexus (AMARE); settings: for AMARE percentage phytotoxicity: B1; for Observed phytotoxicity AMARE: B2.2.6
Experimental: as §1, §2, §3, §4, §5

[5] = test system: Echinochloa crus-galli (ECHCG); settings: for ECHCG percentage phytotoxicity: B1; for Observed phytotoxicity ECHCG: B2.2.2
Experimental: as §1, §2, §3, §4, §5

[6] = test system: Chenopodium album (CHEAL); settings: B1
Experimental: as §1, §2, §3, §4, §5

Stellaria media (STEME) = settings: B1
Experimental: as §1, §2, §3, §4, §5

[7] = test system: Abutilon threophrasti (ABUTH); settings: B1
Experimental: as §1, §2, §3, §4, §5

Lolium perenne (LOLPE) = settings: for LOLPE percentage phytotoxicity: B1; for Observed phytotoxicity LOLPE: B2.2.4
Experimental: as §1, §2, §3, §4, §5

CC1(C)CN(Cc2ccccc2NS(=O)(=O)C(F)(F)F)C1=O [B-IV]
DIGSA percentage phytotoxicity ([1]; 31.25 g/ha post-emergence): 0% | DIGSA percentage phytotoxicity ([1]; 62.5 g/ha post-emergence): 3% | DIGSA percentage phytotoxicity ([1]; 125 g/ha post-emergence): 8% | DIGSA percentage phytotoxicity ([1]; 250 g/ha post-emergence): 10% | DIGSA percentage phytotoxicity ([1]; 500 g/ha post-emergence): 15% | DIGSA percentage phytotoxicity ([1]; 1000 g/ha post-emergence): 55% | Observed phytotoxicity DIGSA ([1]; 250 g/ha post-emergence): 10% | Observed phytotoxicity DIGSA ([1]; 500 g/ha post-emergence): 15% | Observed phytotoxicity DIGSA ([1]; 1000 g/ha post-emergence): 55% | ALOMY percentage phytotoxicity ([2]; 31.25 g/ha post-emergence): 4% | ALOMY percentage phytotoxicity ([2]; 62.5 g/ha post-emergence): 2% | ALOMY percentage phytotoxicity ([2]; 125 g/ha post-emergence): 1% | ALOMY percentage phytotoxicity ([2]; 250 g/ha post-emergence): 3% | ALOMY percentage phytotoxicity ([2]; 500 g/ha post-emergence): 8% | ALOMY percentage phytotoxicity ([2]; 1000 g/ha post-emergence): 8% | Observed phytotoxicity ALOMY ([2]; 500 g/ha post-emergence): 8% | Observed phytotoxicity ALOMY ([2]; 1000 g/ha post-emergence): 8% | SETFA percentage phytotoxicity (Setaria faberi (SETFA); 31.25 g/ha post-emergence): 2% | SETFA percentage phytotoxicity (Setaria faberi (SETFA); 62.5 g/ha post-emergence): 0% | SETFA percentage phytotoxicity (Setaria faberi (SETFA); 125 g/ha post-emergence): 10% | SETFA percentage phytotoxicity (Setaria faberi (SETFA); 250 g/ha post-emergence): 8% | SETFA percentage phytotoxicity (Setaria faberi (SETFA); 500 g/ha post-emergence): 33% | SETFA percentage phytotoxicity (Setaria faberi (SETFA); 1000 g/ha post-emergence): 63% | Observed phytotoxicity SETFA (Setaria faberi (SETFA); 125 g/ha post-emergence): 10% | Observed phytotoxicity SETFA (Setaria faberi (SETFA); 250 g/ha post-emergence): 8% | Observed phytotoxicity SETFA (Setaria faberi (SETFA); 500 g/ha post-emergence): 33% | Observed phytotoxicity SETFA (Setaria faberi (SETFA); 1000 g/ha post-emergence): 63% | IPOHE percentage phytotoxicity ([3]; 31.25 g/ha post-emergence): 55% | IPOHE percentage phytotoxicity ([3]; 62.5 g/ha post-emergence): 80% | IPOHE percentage phytotoxicity ([3]; 125 g/ha post-emergence): 75% | IPOHE percentage phytotoxicity ([3]; 250 g/ha post-emergence): 83% | IPOHE percentage phytotoxicity ([3]; 500 g/ha post-emergence): 83% | IPOHE percentage phytotoxicity ([3]; 1000 g/ha post-emergence): 94% | AMARE percentage phytotoxicity ([4]; 31.25 g/ha post-emergence): 0% | AMARE percentage phytotoxicity ([4]; 62.5 g/ha post-emergence): 15% | AMARE percentage phytotoxicity ([4]; 125 g/ha post-emergence): 43% | AMARE percentage phytotoxicity ([4]; 250 g/ha post-emergence): 43% | AMARE percentage phytotoxicity ([4]; 500 g/ha post-emergence): 75% | AMARE percentage phytotoxicity ([4]; 1000 g/ha post-emergence): 85% | Observed phytotoxicity AMARE ([4]; 31.25 g/ha post-emergence): 0% | Observed phytotoxicity AMARE ([4]; 62.5 g/ha post-emergence): 15% | ECHCG percentage phytotoxicity ([5]; 31.25 g/ha post-emergence): 1% | ECHCG percentage phytotoxicity ([5]; 62.5 g/ha post-emergence): 13% | ECHCG percentage phytotoxicity ([5]; 125 g/ha post-emergence): 38% | ECHCG percentage phytotoxicity ([5]; 250 g/ha post-emergence): 60% | ECHCG percentage phytotoxicity ([5]; 500 g/ha post-emergence): 78% | ECHCG percentage phytotoxicity ([5]; 1000 g/ha post-emergence): 90% | Observed phytotoxicity ECHCG ([5]; 125 g/ha post-emergence): 38% | Observed phytotoxicity ECHCG ([5]; 250 g/ha post-emergence): 60% | Observed phytotoxicity ECHCG ([5]; 500 g/ha post-emergence): 78% | CHEAL percentage phytotoxicity ([6]; 31.25 g/ha post-emergence): 0% | CHEAL percentage phytotoxicity ([6]; 62.5 g/ha post-emergence): 8% | CHEAL percentage phytotoxicity ([6]; 125 g/ha post-emergence): 15% | CHEAL percentage phytotoxicity ([6]; 250 g/ha post-emergence): 40% | CHEAL percentage phytotoxicity ([6]; 500 g/ha post-emergence): 25% | CHEAL percentage phytotoxicity ([6]; 1000 g/ha post-emergence): 75% | STEME percentage phytotoxicity (Stellaria media (STEME); 31.25 g/ha post-emergence): 85% | STEME percentage phytotoxicity (Stellaria media (STEME); 62.5 g/ha post-emergence): 85% | STEME percentage phytotoxicity (Stellaria media (STEME); 125 g/ha post-emergence): 91% | STEME percentage phytotoxicity (Stellaria media (STEME); 250 g/ha post-emergence): 93% | STEME percentage phytotoxicity (Stellaria media (STEME); 500 g/ha post-emergence): 90% | STEME percentage phytotoxicity (Stellaria media (STEME); 1000 g/ha post-emergence): 93% | ABUTH percentage phytotoxicity ([7]; 31.25 g/ha post-emergence): 80% | ABUTH percentage phytotoxicity ([7]; 62.5 g/ha post-emergence): 80% | ABUTH percentage phytotoxicity ([7]; 125 g/ha post-emergence): 90% | ABUTH percentage phytotoxicity ([7]; 250 g/ha post-emergence): 98% | ABUTH percentage phytotoxicity ([7]; 500 g/ha post-emergence): 85% | ABUTH percentage phytotoxicity ([7]; 1000 g/ha post-emergence): 85% | LOLPE percentage phytotoxicity (Lolium perenne (LOLPE); 31.25 g/ha post-emergence): 0% | LOLPE percentage phytotoxicity (Lolium perenne (LOLPE); 62.5 g/ha post-emergence): 0% | LOLPE percentage phytotoxicity (Lolium perenne (LOLPE); 125 g/ha post-emergence): 0% | LOLPE percentage phytotoxicity (Lolium perenne (LOLPE); 250 g/ha post-emergence): 8% | LOLPE percentage phytotoxicity (Lolium perenne (LOLPE); 500 g/ha post-emergence): 38% | LOLPE percentage phytotoxicity (Lolium perenne (LOLPE); 1000 g/ha post-emergence): 65% | Observed phytotoxicity LOLPE (Lolium perenne (LOLPE); 62.5 g/ha post-emergence): 0% | Observed phytotoxicity LOLPE (Lolium perenne (LOLPE); 125 g/ha post-emergence): 0% | Observed phytotoxicity LOLPE (Lolium perenne (LOLPE); 250 g/ha post-emergence): 8% | Observed phytotoxicity LOLPE (Lolium perenne (LOLPE); 500 g/ha post-emergence): 38% | Observed phytotoxicity LOLPE (Lolium perenne (LOLPE); 1000 g/ha post-emergence): 65%
